Reference: the PolyMetriX glass transition set
± gives the standard deviation of the reports.

Compound | glass transition temperature
*Oc1ccc(Oc2ccc(NC(=O)c3ccc(Oc4ccc(C(C)(C)c5ccc(C(C)(C)c6ccc(Oc7ccc(C(=O)Nc8ccc(*)cc8)cc7)cc6)cc5)cc4)cc3)cc2)cc1 (repeat unit) | 165.00 °C
*/C(=C/c1cc(OC)c(/C=C(\c2ccccc2)c2ccc3cc(*)ccc3c2)cc1OC)c1ccccc1 (repeat unit) | 198.00 °C
*/C(C#N)=C/c1cc(/C=C(\C#N)c2ccc3c(c2)C(CCCCCCCC)(CCCCCCCC)c2cc(*)ccc2-3)cc(N(c2ccccc2)c2ccccc2)c1 (repeat unit) | 136.00 °C
*Nc1cc(NC(=O)Nc2ccc(Cc3ccc(NC(*)=O)cc3)cc2)cc(C(=O)Nc2cccc3c2C(=O)c2ccccc2C3=O)c1 (repeat unit) | 178.00 °C
*O[Si](C)(C)c1cccc2c1ccc1c([Si](*)(C)C)cccc12 (repeat unit) | 100.00 °C
*c1ccc(Oc2ccc(N3C(=O)c4c(c(-c5ccccc5)c(-c5ccc(-c6c(-c7ccccc7)c7c(c(-c8ccccc8)c6-c6ccccc6)C(=O)N(*)C7=O)cc5)c(-c5ccccc5)c4-c4ccccc4)C3=O)cc2)cc1 (repeat unit) | 413.00 °C
*c1ccc2c(c1)C(=O)N(c1cccc(Oc3ccc(Oc4cccc(N5C(=O)c6ccc(C(*)(C(F)(F)F)C(F)(F)F)cc6C5=O)c4)cc3)c1)C2=O (repeat unit) | 230.00 °C
*Oc1ccc(NC(=O)c2cc(-c3ccc(C(=O)O)c(C(=O)Nc4ccc(*)cc4)c3)ccc2C(=O)O)cc1 (repeat unit) | 184.40 °C
*c1ccc2c(c1)C(=O)N(c1ccc(C(=O)Nc3ccc(Oc4cccc(Oc5ccc(NC(=O)c6ccc(N7C(=O)c8ccc(C(*)(C(F)(F)F)C(F)(F)F)cc8C7=O)cc6)cc5)c4)cc3)cc1)C2=O (repeat unit) | 286.00 °C
*NC1CCC(CC2CCC(NC(=O)CCCCCCCCCCCCC(*)=O)CC2)CC1 (repeat unit) | 131.00 °C
*c1cccc(P(=O)(c2ccc(C(F)(F)F)cc2)c2cccc(-n3c(=O)c4c(-c5ccc(C(F)(F)F)cc5)c5c(=O)n(*)c(=O)c5c(-c5ccc(C(F)(F)F)cc5)c4c3=O)c2)c1 (repeat unit) | 324.00 °C
*CC(*)C(=O)N1CC[NH+](CC)CC1 (repeat unit) | 72.50 °C
*C(=O)c1ccc2c(c1)C(=O)N(c1ccc(C(=O)c3cccc(N4C(=O)c5ccc(*)cc5C4=O)c3)cc1)C2=O (repeat unit) | 282.00 ± 3 °C
*C(=O)Nc1ccc(-c2sc(-c3ccc(NC(=O)c4ccc5c(c4)C(=O)N(c4ccc(-c6sc(-c7ccc(N8C(=O)c9ccc(*)cc9C8=O)cc7)c(-c7ccccc7)c6-c6ccccc6)cc4)C5=O)cc3)c(-c3ccccc3)c2-c2ccccc2)cc1 (repeat unit) | 338.00 °C
*Oc1ccc(CC(NC(=O)CCc2ccc(OC(=O)COCC(*)=O)cc2)C(=O)OC)cc1 (repeat unit) | 82.00 °C
*C[Si](*)(C)c1ccccc1 (repeat unit) | 28.00 °C

Compound | glass transition temperature
*CCCCCCOC(=O)OCCCCCCCCCOC(=O)OCCCCCCOc1ccc(Oc2ccc(O*)cc2)cc1 (repeat unit) | -20.00 °C
*CC(*)(C)C(=O)OCc1ccc(/C=C/C(=O)Oc2ccc3oc(=O)ccc3c2)cc1 (repeat unit) | 140.00 °C
*c1c(C)cc(-c2cc(C)c(-n3c(=O)c4cc5c(=O)n(*)c(=O)c5cc4c3=O)c(C)c2)cc1C (repeat unit) | 340.00 °C
*c1ccc(S(=O)(=O)c2ccc(N3C(=O)c4ccc(-c5ccc6c(c5)C(=O)N(*)C6=O)cc4C3=O)cc2)cc1 (repeat unit) | 340.00 ± 14 °C
*CC(*)c1ccc(OCCC)cc1 (repeat unit) [Poly(p-n-propoxy styrene)] | 70 ± 3.5 °C
*CC(*)OC(=O)c1cccc(C)c1 (repeat unit) | 49.00 °C
*CCOCCOCCOCCOCCOc1ccc(/C=C(\C)c2ccc(O*)cc2)cc1 (repeat unit) | 17.00 °C
*CCCCCCCCOC(=O)NCCCCCCNC(=O)O* (repeat unit) | 58.00 °C
*Oc1ccc(S(=O)(=O)c2ccc(Oc3ccc(P(=O)(c4ccccc4)c4ccc(*)cc4)cc3)cc2)cc1 (repeat unit) | 231.00 °C
*C(=O)OCCOC(=O)c1cccc(N2C(=O)c3ccc(*)cc3C2=O)c1 (repeat unit) | 220.00 °C
*CCOCCOCCOC(=O)CCCCC(=O)O* (repeat unit) | -49.00 °C
*CC(*)c1cc(Br)ccc1OC (repeat unit) | 86.00 °C
*C[Si](*)(CCCC)CCCC (repeat unit) | -30.00 °C
*CC(OC(C)C)C1C(=O)OC(=O)C1* (repeat unit) | 142.00 °C
*Oc1ccc(C(=O)OCCCCCCCOC(=O)c2ccc(OC(=O)c3ccc(C(*)=O)cc3)cc2)cc1 (repeat unit) | 70.00 °C
*SC(*)(F)F (repeat unit) | -118.00 °C

The remaining lines, values ahead:

glass transition temperature | Compound
204.00 °C | *c1ccc2c(c1)C(=O)N(c1ccc(OC(CCC)COc3ccc(N4C(=O)c5ccc(C(*)(C(F)(F)F)C(F)(F)F)cc5C4=O)cc3)cc1)C2=O (repeat unit)
214.00 °C | *C(=O)c1ccc2c(c1)C(=O)N(c1ccc(N3C(=O)c4ccc(*)cc4C3=O)c(S(=O)(=O)[O][Na])c1)C2=O (repeat unit)
25.00 °C | *c1ccc(-c2nc3cc4sc(*)nc4cc3s2)cc1 (repeat unit)
359.00 °C | *c1ccc(Sc2ccc(-n3c(=O)c4cc5c(=O)n(*)c(=O)c5cc4c3=O)cn2)nc1 (repeat unit)
120.00 °C | *CC(O)COc1ccc(C(=O)c2ccc(OCC(O)COc3ccc(C(C)(C)c4ccc(O*)cc4)cc3)cc2)cc1 (repeat unit)
18.50 °C | *CCCOCCCOC(=O)c1ccc(-c2ccc(C(=O)O*)cc2)cc1 (repeat unit)
-49.00 °C | *CC(C)(CO*)COCC(F)(F)C(F)(F)C(F)(F)C(F)(F)C(F)(F)C(F)(F)C(F)(F)F (repeat unit)
302.30 °C | *c1ccc2c(c1)C(=O)N(c1ccc(Oc3ccc4ccc(Oc5ccc(N6C(=O)c7ccc(C(*)(C(F)(F)F)C(F)(F)F)cc7C6=O)cc5)cc4c3)cc1)C2=O (repeat unit)
134.00 °C | *c1cccc(OCCCCCCCCCOc2cccc(N3C(=O)c4ccc(-c5cccc6c5C(=O)N(*)C6=O)cc4C3=O)c2)c1 (repeat unit)
164.00 °C | *C(=O)Nc1cc(NC(=O)c2ccc3c(c2)C(=O)N(c2cc(-c4nnc(-c5ccccn5)o4)cc(N4C(=O)c5ccc(*)cc5C4=O)c2)C3=O)cc(-c2nnc(-c3ccccn3)o2)c1 (repeat unit)
170.00 °C | *CCN(CCN1C(=O)c2ccc(C(c3ccc4c(c3)C(=O)N(*)C4=O)(C(F)(F)F)C(F)(F)F)cc2C1=O)c1ccc(/N=N/c2ccc(C=O)cc2)cc1 (repeat unit)
365.00 °C | *C(=O)Nc1cccc(NC(=O)c2ccc3c(c2)C(=O)N(c2cc(-c4nc5ccccc5o4)cc(N4C(=O)c5ccc(*)cc5C4=O)c2)C3=O)n1 (repeat unit)
176.40 °C | *Oc1cccc(Oc2cccc(NC(=O)c3cc(Oc4ccc(C(=O)O)c(C(=O)Nc5cccc(*)c5)c4)ccc3C(=O)O)c2)c1 (repeat unit)
234.00 °C | *c1ccc2c(c1)C(=O)N(c1ccc(OC(C)COc3ccc(N4C(=O)c5ccc(C(*)(C(F)(F)F)C(F)(F)F)cc5C4=O)cc3)cc1)C2=O (repeat unit)
186.00 °C | *Oc1ccc(C(C)(C)c2cc(Cl)c(OC(*)=O)c(Cl)c2)cc1 (repeat unit)
404.00 ± 8.5 °C | *C(=O)c1ccc2c(c1)C(=O)N(c1c(C)cc(C)c(N3C(=O)c4ccc(*)cc4C3=O)c1C)C2=O (repeat unit)
58.00 °C | *CCCCCCCCCCCC(=O)Oc1ccc(OC(=O)c2ccc3c(c2)C(=O)N(*)C3=O)cc1 (repeat unit)
76.00 °C | *Oc1ccc(/N=C/CCC/C=N/c2ccc(OC(=O)Nc3ccc(Cc4ccc(NC(*)=O)cc4)cc3)cc2)cc1 (repeat unit)
287.00 °C | *c1ccc(C(=O)Nc2ccc(Oc3ccc(S(=O)(=O)c4ccc(Oc5ccc(NC(=O)c6ccc(N7C(=O)c8ccc(-c9cccc%10c9C(=O)N(*)C%10=O)cc8C7=O)cc6)cc5)cc4)cc3)cc2)cc1 (repeat unit)
224.00 °C | *c1ccc(N(c2ccc(C#N)cc2)c2ccc(N3C(=O)c4ccc(Oc5ccc(C(C)(C)c6ccc(C(C)(C)c7ccc(Oc8ccc9c(c8)C(=O)N(*)C9=O)cc7)cc6)cc5)cc4C3=O)cc2)cc1 (repeat unit)
-11.00 °C | *CCCCCCOC(=O)OCCCCCOC(=O)OCCCCCCOc1ccc(Oc2ccc(O*)cc2)cc1 (repeat unit)
285.00 °C | *C(=O)Nc1ccc(Oc2ccc(Oc3ccc(NC(=O)c4ccc5c(c4)C(=O)N(c4ccc(Oc6cccc7c(Oc8ccc(N9C(=O)c%10ccc(*)cc%10C9=O)cc8)cccc67)cc4)C5=O)cc3)cc2)cc1 (repeat unit)
345.00 °C | *Oc1cc(Oc2ccc(NC(=O)c3cc(NC(=O)C45CC6CC(CC(C6)C4)C5)cc(C(=O)Nc4ccc(*)cc4)c3)cc2)ccc1C12CC3CC(CC(C3)C1)C2 (repeat unit)
250.00 °C | */C(=C(/*)c1ccc([Si](C(C)C)(C(C)C)C(C)C)cc1)c1ccccc1 (repeat unit)
-57.00 °C | *CCCCOC(=O)CCCCCCCCC(=O)O* (repeat unit)
132.00 °C | *CCCC(=O)Oc1ccc(-c2ccc(OC(=O)c3ccc4c(c3)C(=O)N(*)C4=O)cc2)cc1 (repeat unit)
293.00 °C | *C(=O)Nc1ccc(Oc2ccc(C3(c4ccc(Oc5ccc(NC(=O)c6ccc7c(c6)C(=O)N(c6ccc(Oc8ccc(Oc9ccc(N%10C(=O)c%11ccc(*)cc%11C%10=O)cc9)c(C)c8)cc6)C7=O)cc5)cc4)NC(=O)c4ccccc43)cc2)cc1 (repeat unit)
327.00 °C | *C(=O)Nc1ccc(NC(=O)c2ccc3c(c2)C(=O)N(c2c(C)cc(C)c(N4C(=O)c5ccc(*)cc5C4=O)c2C)C3=O)cc1 (repeat unit)
